ChEMBL document CHEMBL1140824, “Hepatoselectivity of statins: design and synthesis of 4-sulfamoyl pyrroles as HMG-CoA reductase inhibitors” (Bioorg Med Chem Lett, 2008)

Assays:
[1] = molecular target: T1, 3-hydroxy-3-methylglutaryl-coenzyme A reductase (Rattus norvegicus, UniProt P51639); assay: Inhibition of rat microsomal HMGCoA reductase
T1 sequence (P51639 whole entry): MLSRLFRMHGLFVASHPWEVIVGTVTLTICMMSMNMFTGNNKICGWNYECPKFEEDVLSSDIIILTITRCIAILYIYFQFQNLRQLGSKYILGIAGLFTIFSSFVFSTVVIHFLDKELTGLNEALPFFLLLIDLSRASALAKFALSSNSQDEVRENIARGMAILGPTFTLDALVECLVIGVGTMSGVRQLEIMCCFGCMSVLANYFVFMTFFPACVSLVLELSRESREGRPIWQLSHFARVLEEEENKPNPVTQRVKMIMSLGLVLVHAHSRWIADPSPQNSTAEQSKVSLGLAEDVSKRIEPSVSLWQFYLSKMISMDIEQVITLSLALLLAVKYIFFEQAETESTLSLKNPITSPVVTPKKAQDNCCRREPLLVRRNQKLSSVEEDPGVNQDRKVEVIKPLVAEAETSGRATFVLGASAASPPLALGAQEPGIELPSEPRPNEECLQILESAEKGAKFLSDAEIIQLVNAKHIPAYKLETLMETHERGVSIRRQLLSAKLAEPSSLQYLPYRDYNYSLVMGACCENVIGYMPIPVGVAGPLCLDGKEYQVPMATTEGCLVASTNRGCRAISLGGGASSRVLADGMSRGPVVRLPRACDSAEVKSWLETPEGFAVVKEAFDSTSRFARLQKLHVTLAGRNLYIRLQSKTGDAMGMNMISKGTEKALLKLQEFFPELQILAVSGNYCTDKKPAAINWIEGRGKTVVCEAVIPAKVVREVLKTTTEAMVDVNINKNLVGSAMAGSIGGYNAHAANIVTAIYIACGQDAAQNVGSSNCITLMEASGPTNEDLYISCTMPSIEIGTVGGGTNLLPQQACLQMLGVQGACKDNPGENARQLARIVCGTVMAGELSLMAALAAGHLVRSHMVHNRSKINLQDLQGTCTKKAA

[2] = test system: Hepatocyte; assay: Inhibition of cholesterol synthesis in rat hepatocyte; assay type: functional, cell-based
[3] = test system: L6; assay: Inhibition of cholesterol synthesis in rat L6 myocyte; assay type: functional, cell-based
[4] = test system: Hepatocyte; assay: Selectivity, ratio of IC50 for rat L6 myocyte to IC50 for rat hepatocyte; assay type: functional
[5] = test system: Mus musculus; assay: Inhibition of acute cholesterol synthesis in mouse at 1 mg/kg; assay type: functional; conditions: read-out: Inhibition
[6] = test system: Syrian golden hamster; assay: Reduction of LDL cholesterol level in syrian golden hamster plasma; assay type: functional, Mesocricetus auratus
[7] = Cmax in human; assay type: ADME, organism-based; conditions: in vivo
[8] = Ratio of Cmax for human to IC50 for rat L6 myocyte; assay type: functional
[9] = species: Homo sapiens; assay: Incidence of myalgia in human; assay type: ADME, organism-based; conditions: in vivo

Row | IC50 [1] | Cmax [7] | Structure (SMILES) | IC50 [2] | IC50 [3] | Ratio IC50 [4] | inhibition in vivo at 1 mg/kg [5] | Inhibition [6] | Ratio [8] | Activity [9]
1 | 8.4 nM |  | CC(C)c1c(S(=O)(=O)N2CCc3ccccc3C2)c(-c2ccc(F)cc2)c(-c2ccc(F)cc2)n1CC[C@@H](O)C[C@@H](O)CC(=O)[O-].[Na+] | 2.5 nM | 2500 nM | 984 |  |  |  | 
2 | 9.7 nM |  | CC(C)c1c(S(=O)(=O)N2CCSCC2)c(-c2ccc(F)cc2)c(-c2ccc(F)cc2)n1CC[C@@H](O)C[C@@H](O)CC(=O)[O-].[Na+] | 3.3 nM | 5700 nM | 1748 | 15% |  |  | 
3 | 1.8 nM |  | CC(C)c1c(S(=O)(=O)N2CCC2)c(-c2ccccc2)c(-c2ccc(F)cc2)n1CC[C@@H](O)C[C@@H](O)CC(=O)[O-].[Na+] | 1.1 nM | 2150 nM | 1954 | 34.8% |  |  | 
4 | 2.7 nM |  | CC(C)c1c(S(=O)(=O)N2CCN(C)CC2)c(-c2ccccc2)c(-c2ccc(F)cc2)n1CC[C@@H](O)C[C@@H](O)CC(=O)[O-].[Na+] | 3 nM | 10500 nM | 3559 |  |  |  | 
5 | 9 nM |  | CC(C)c1c(S(=O)(=O)Nc2ccccc2)c(-c2ccccc2)c(-c2ccc(F)cc2)n1CC[C@@H](O)C[C@@H](O)CC(=O)[O-].[Na+] | 0.57 nM | 20 nM | 34 | 49.2% |  |  | 
6 | 2.6 nM |  | CC(C)c1c(S(=O)(=O)N2CCCC2)c(-c2ccccc2)c(-c2ccc(F)cc2)n1CC[C@@H](O)C[C@@H](O)CC(=O)[O-].[Na+] | 0.5 nM | 5200 nM | 10400 | 75.9% | 38% |  | 
7 | 2.9 nM |  | CC(C)c1c(S(=O)(=O)N2CCCCC2)c(-c2ccccc2)c(-c2ccc(F)cc2)n1CC[C@@H](O)C[C@@H](O)CC(=O)[O-].[Na+] | 0.67 nM | 7000 nM | 10479 | 56% |  |  | 
8 | 6.5 nM |  | CC(C)c1c(S(=O)(=O)N(C)C)c(-c2ccccc2)c(-c2ccc(F)cc2)n1CC[C@@H](O)C[C@@H](O)CC(=O)[O-].[Na+] | 0.45 nM | 1380 nM | 3066 |  |  |  | 

Second part, the molecule before the results:

Row | Structure (SMILES) | IC50 [1] | Cmax [7] | IC50 [2] | IC50 [3] | Ratio IC50 [4] | inhibition in vivo at 1 mg/kg [5] | Inhibition [6] | Ratio [8] | Activity [9]
9 | CC(C)c1c(S(=O)(=O)Nc2ccccc2)c(-c2ccc(F)cc2)c(-c2ccc(F)cc2)n1CC[C@@H](O)C[C@@H](O)CC(=O)[O-].[Na+] | 2 nM |  | 0.96 nM | 45 nM | 45 |  |  |  | 
10 | CC(C)c1c(S(=O)(=O)Nc2cccc(O)c2)c(-c2ccc(F)cc2)c(-c2ccc(F)cc2)n1CC[C@@H](O)C[C@@H](O)CC(=O)[O-].[Na+] | 9.4 nM |  | 0.4 nM | 2500 nM | 6250 | 44.2% |  |  | 
11 | CC(C)c1c(S(=O)(=O)NCc2ccccc2)c(-c2ccc(F)cc2)c(-c2ccc(F)cc2)n1CC[C@@H](O)C[C@@H](O)CC(=O)[O-].[Na+] | 13 nM |  | 0.37 nM | 2200 nM | 5945 | 58.6% |  |  | 
12 | CC(C)c1c(S(=O)(=O)N(C)C)c(-c2ccc(F)cc2)c(-c2ccc(F)cc2)n1CC[C@@H](O)C[C@@H](O)CC(=O)[O-].[Na+] | 6.1 nM |  | 0.75 nM | 1400 nM | 1866 | 58.8% | 30% |  | 
13 | CC(C)c1c(S(=O)(=O)Nc2ccc(S(N)(=O)=O)cc2)c(-c2ccc(F)cc2)c(-c2ccc(F)cc2)n1CC[C@@H](O)C[C@@H](O)CC(=O)[O-].[Na+] | 4.9 nM |  | 2.7 nM | 4380 nM | 1622 | 15% |  |  | 
14 | CC(C)c1c(S(=O)(=O)Nc2cccc(C(N)=O)c2)c(-c2ccc(F)cc2)c(-c2ccc(F)cc2)n1CC[C@@H](O)C[C@@H](O)CC(=O)[O-].[Na+] | 18 nM |  | 5 nM | 36000 nM | 7340 |  |  |  | 
15 | CC(C)c1c(S(=O)(=O)N2CCOCC2)c(-c2ccccc2)c(-c2ccc(F)cc2)n1CC[C@@H](O)C[C@@H](O)CC(=O)[O-].[Na+] |  |  | 0.8 nM | 10000 nM | 12469 | 55.6% | 11% |  | 
16 | CC(C)c1c(S(=O)(=O)Nc2cccc(CC(N)=O)c2)c(-c2ccc(F)cc2)c(-c2ccc(F)cc2)n1CC[C@@H](O)C[C@@H](O)CC(=O)[O-].[Na+] | 1 nM |  | 1.4 nM | 10000 nM | 7299 |  |  |  | 
17 | CC(C)c1c(S(=O)(=O)N(C)Cc2ccccc2)c(-c2ccccc2)c(-c2ccc(F)cc2)n1CC[C@@H](O)C[C@@H](O)CC(=O)[O-].[Na+] | 8.5 nM |  | 0.25 nM | 140 nM | 566 |  |  |  | 
18 | CC(C)c1c(S(=O)(=O)Nc2ccc(C(N)=O)cc2)c(-c2ccc(F)cc2)c(-c2ccc(F)cc2)n1CC[C@@H](O)C[C@@H](O)CC(=O)[O-].[Na+] | 5.8 nM |  | 1.8 nM | 2340 nM | 1300 | 34.4% |  |  | 
19 | CC(C)c1c(S(=O)(=O)N(C)Cc2ccccc2)c(-c2ccc(F)cc2)c(-c2ccc(F)cc2)n1CC[C@@H](O)C[C@@H](O)CC(=O)[O-].[Na+] | 8 nM |  | 0.69 nM | 550 nM | 797 |  |  |  | 
20 | CC(C)c1c(S(=O)(=O)Nc2ccc(F)cc2)c(-c2ccc(F)cc2)c(-c2ccc(F)cc2)n1CC[C@@H](O)C[C@@H](O)CC(=O)[O-].[Na+] | 15 nM |  | 0.47 nM | 60 nM | 127 | 51.8% |  |  | 
21 | CNS(=O)(=O)c1c(-c2ccc(F)cc2)c(-c2ccc(F)cc2)n(CC[C@@H](O)C[C@@H](O)CC(=O)O)c1C(C)C | 27 nM |  | 0.22 nM |  |  | 33% |  |  | 
22 | CC(C)c1c(C(=O)Nc2ccccc2)c(-c2ccccc2)c(-c2ccc(F)cc2)n1CC[C@@H](O)C[C@@H](O)CC(=O)O [ATORVASTATIN] |  |  | 0.99 nM | 142 nM |  | 75.2% |  |  | 
23 | COCc1c(C(C)C)nc(C(C)C)c(/C=C/[C@@H](O)C[C@@H](O)CC(=O)O)c1-c1ccc(F)cc1 [CERIVASTATIN] |  | 25 nM |  | 7 nM | 4.1 |  |  | 3.6 | 
24 | CC[C@H](C)C(=O)O[C@H]1C[C@H](O)C=C2C=C[C@H](C)[C@H](CC[C@@H](O)C[C@@H](O)CC(=O)O)[C@H]21 [PRAVASTATIN] |  | 100 nM |  |  | 444 |  |  | 0.01 | 10.9%
25 | CC(C)c1nc(N(C)S(C)(=O)=O)nc(-c2ccc(F)cc2)c1/C=C/[C@@H](O)C[C@@H](O)CC(=O)O [ROSUVASTATIN] | 3.7 nM | 75 nM |  |  | 926 | 82.4% | 62% | 0.3 | 
26 | CCC(C)(C)C(=O)O[C@H]1C[C@@H](C)C=C2C=C[C@H](C)[C@H](CC[C@@H]3C[C@@H](O)CC(=O)O3)[C@H]21 [SIMVASTATIN] |  | 120 nM |  | 150 nM |  |  |  |  | 18.2%
